Data on seven compounds can be found in patent US12343326B2, “Psychoactive medicines and their use for treating psychiatric and neurological conditions and disorders” (Transcend Therapeutics, Inc., priority 2021, dated 2025).

For one series, the system named is Male Sprague Dawley rats. As to the kind of experiment: Forced Swim Test (FST). In kind it is in vivo, rat. From the text:
The Forced Swim Test (FST) is a classic, and the most used preclinical behavioral assay to screen compounds with antidepressant-like activity and has high predictive and face validity (Porsolt et al. (1977) Nature 266:730; Borsini and Meli (1988) Psychopharmacology 94:147). The premise of the FST is that when rats are placed into a cylinder filled with water, they will initially try to escape, but over time will become immobile. This increased immobility reflects behavioral despair, modeling a depressive-like state.
Forced Swim Test (FST): In the FST trial, rats were placed in a circular plexiglass container filled with water, with no means of escape. Water temperature was maintained at 22-25° C. and changed for every animal. After an acclimation period, rats were timed for inactivity (failure to struggle), activity, swim time and climbing time. Day 1 consisted of a 15 min acclimation trial, and Day 2 (24 h later) consisted of the 5 min test. A time sampling procedure was employed where animals were observed every 5 sec and scored for immobility, swimming, or climbing. Fluoxetine (10 mg/kg, IP, Sigma Aldrich) or 0.9% sterile saline vehicle (vehicle 3× group) were administered 23.5, 5, and 1 h before testing in the FST. […] The experimenter was blinded to treatment.
Forced Swim Test: In the FST trial, rats were placed in a circular plexiglass container filled with water, with no means of escape. Water temperature was maintained at 22-25° C. and changed for every animal. After an acclimation period, rats were timed for inactivity (failure to struggle), activity, swim time and climbing time. Day 1 consisted of a 15 min acclimation trial, and Day 2 (24 h later) consisted of the 5 min test. A time sampling procedure was employed where animals were observed every 5 sec and scored for immobility, swimming, or climbing. Fluoxetine (10 mg/kg, IP, Sigma Aldrich) or 0.9% sterile saline vehicle (vehicle 3× group) were administered 23.5, 5, and 1 h before testing in the FST. 2C-B (2.5, 10, or 20 mg/kg, IP, Cayman Chemical) or 0.9% saline vehicle (vehicle 1× group) were administered 30 min prior to FST testing. The experimenter was blinded to treatment.
Drug Treatment: Fluoxetine (10 mg/kg, IP, Sigma Aldrich) or 0.9% sterile saline vehicle were administered 23.5, 5, and 1 h before testing in the FST. […] Control animals received fluoxetine alone, methylone alone, or saline vehicle.
Forced Swim Test: In the FST trial, rats were placed in a circular plexiglass container filled with water, with no means of escape. Water temperature was maintained at 22-25° C. and changed for every animal. After an acclimation period, rats were timed for inactivity (failure to struggle), activity, swim time and climbing time. The experimenter and scorer were blind to treatment group. Day 1 consisted of a 15 min acclimation trial, and Day 2 (24 h later) consisted of the 5 min test. A time sampling procedure was employed where animals were observed every 5 sec and scored for immobility, swimming, or climbing.
Control animals received saline vehicle. The dosing schedule and experimental design are found in FIG. 12A.
The FST was performed and scored by an experimenter blind to treatment group according to standard protocols and based on a “modified FST” procedure (Slattery and Cryan (2012) Nat Protoc, 7:1009). Briefly, rats were placed in a circular plexiglass container (29.2 cm diameter, 49.5 cm height) filled with water to a depth of 30 cm so rats could not support themselves by touching the bottom of the tank. Water was maintained at 22-25° C. and was changed for every animal. Day 1 (Training) consisted of a 15 min acclimation trial, and Day 2 (Testing, 24 h later) consisted of the 5 min test. […]

A further series concerns mice. The series is described as follows: Mouse fear extinction paradigm (PTSD model). In kind it is in vivo. As to conditions: MBDB 5 mg/kg IP; day 2. From the text: Effective PTSD treatments facilitate the disassociation between a traumatic memory and the patient's fear response, making cues for the traumatic memory evoke less of a fear response. This is modeled in the mouse fear extinction paradigm (see FIG. 9A) which takes place over 3 days. On day 1 (fear conditioning), mice are trained to acquire a “traumatic memory,” namely associating the conditioned stimulus (CS, tone) to the unconditioned stimulus (US, foot shock). On day 2 (extinction training), they are trained to forget the traumatic memory association by presenting the CS 6 times (with no US) in a novel environment. On day 3 (extinction recall), the mice are “asked” if that tone (CS) still elicits a fearful response, as measured by the time spent freezing when the tone is presented. Less time freezing means better extinction recall. Drugs that improve extinction recall reduce freezing time on day 3, and, therefore, show potential as a PTSD treatment.

Series [1] concerns serotonergic terminals in the cortex and hippocampus. As to conditions: 25 mg/kg IP every 12 hours for 4 days; 2 weeks post-treatment; cited from earlier work.
The next series has as its system experienced drug users. As to conditions: cited from earlier work.
The test system of series [2] is rats with reserpine-induced pain sensitivity. As to the kind of experiment: Reserpine-induced fibromyalgia model, von Frey test. In kind it is in vivo, rat. As to conditions: 2C-B 10 and 20 mg/kg; duloxetine positive control; 60-min post-injection. The protocol:
Reserpine (1 mg/kg/s.c.) is administered for 3 days to mimic chronic widespread pain and complex symptoms.
In this Example, male Sprague Dawley rats are tested in a behavioral model of FMA based on the protocol from Nakagura et al. (2009) Pain 146:26. This model uses three daily doses of reserpine (1 mg/kg, SC) or 0.5% acetic acid vehicle to reduce pain thresholds (i.e., increase pain perception) in the Von Frey Test (vFT, procedure outlined below).
Von Frey Test (vFT) procedure: Increasing pain thresholds in this test are consistent with a reduction in pain perception. Prior to the start of dosing, rats are tested for their baseline mechanical pain threshold. For von Frey measurements, animals are placed into wire bottom cubicles with opaque Plexiglas walls, allowing access to the underside of their paws. Animals are habituated to this environment for at least 30 minutes before the start of the von Frey filament application. Static allodynia is measured using Semmes-Weinstein von Frey filaments (Stoelting, Wood Dale, IL). Mechanical allodynia is tested by touching the plantar surface of the animals' left and right hind paws with von Frey filaments which deliver a calibrated amount of force. Each von Frey filament is presented perpendicularly to the plantar surface for approximately 6 seconds of constant application in either ascending or descending strength in a modified up-and-down method (Chaplan et al. (1994) J Neurosci. Meth. 53:55). Stimulation is presented at intervals of several seconds, allowing for apparent resolution of any behavioral responses to previous stimuli. A positive response is noted if the paw is sharply withdrawn. Flinching immediately upon removal of the hair is also considered a positive response. […]
VonFrey measurements: Animals were placed into wire bottom cubicles with opaque Plexiglas walls, allowing access to the underside of their paws. […] Static allodynia was measured using Semmes-Weinstein von Frey filaments (Stoelting, Wood Dale, IL). […] The average hindpaw thresholds were determined 60-min post-injection. […]

In the next series the test system is Male C57Bl/6 mice. The series is described as follows: Cisplatin chemotherapy-induced peripheral neuropathy (CIPN) model, von Frey test. The class given is in vivo, mouse. The protocol: Cisplatin, a platinum-based chemotherapy agent has been used to reduce pain thresholds in a model of CIPN. Effects of acute (single higher dose) or sub-chronic (7 days repeated lower dose) 2C-B on pain thresholds were investigated in cisplatin-treated animals compared with vehicle or cisplatin-treated controls.
Methods: Male C57Bl/6 mice aged 12-16 weeks were used. Cisplatin (2.5 mg/kg) or vehicle was administered on days 1-5 and 11-15.
Vehicle, sub-chronic 2C-B (5 mg/kg once daily days 17-23) or acute 2C-B (20 mg/kg once on day 17) was then administered IP (N=16-18/group). VonFrey testing took place on day 17 (30 min post-dose) and days 21 and 24 (pre-dose) to monitor the effects of 2C-B in cisplatin treated animals, compared with animals receiving cisplatin+vehicle or vehicle+vehicle.
For von Frey measurements, animals were placed into wire bottom cubicles with opaque Plexiglas walls, allowing access to the underside of their paws. Animals were habituated to this environment for at least 30 minutes before the start of the von Frey filament application. Static allodynia was measured using Semmes-Weinstein von Frey filaments (Stoelting, Wood Dale, IL). Mechanical allodynia was tested by touching the plantar surface of the animals' right and left hind paws with von Frey filaments which deliver a calibrated amount of force (0.07, 0.16, 0.4, 0.6. 1.0, 2.0, 4.0, 6.0 g). […]

The test system of series [3] is rats (Sprague Dawley; Flinders Sensitive Line). As to conditions: cited from earlier work.

Entries after “also recorded” stand apart in the source; their conditions may differ. Read-outs that look alike come from different tables or passages of the source.

Take `CCC(Cc1ccc2c(c1)OCO2)NC` (racemic) [MBDB, N-methyl-1-(1,3-benzodioxol-5-yl)-2-aminobutane]: the “immobility (FST)” value in the series on Male Sprague Dawley rats (MBDB 5-30 mg/kg IP, 30 min before testing) was “significantly reduced immobility”. Besides, in the series on mice, the “extinction acquisition (freezing, first trial of extinction training)” value was “improved extinction acquisition; also recorded: significantly reduced” and the locomotor activity entry was “small, but significant increase in locomotor activity”. For the same compound, the “serotonergic terminals in the cortex and hippocampus destroyed” value in series [1] was 55-60%. Besides, the serious adverse effects entry in the series on experienced drug users (self-administered under supervision, dose 100 to 300 mg) is recorded as “no serious adverse effects”.

`COc1cc(CCN)c(OC)cc1Br` [2C-B, 4-Bromo-2,5-dimethoxyphenethylamine]: the “climbing (FST)” value with Male Sprague Dawley rats (2C-B high-dose group only) was “significantly decreased”. Further, in the series on Male Sprague Dawley rats (single dose of 2C-B 30 minutes before testing), the “swimming (FST)” value is reported as “significant increase in swimming”. Besides, the “animals with complete (maximal) reversal of reserpine-induced pain sensitivity” value in series [2] came to 100%. In the series with Male C57Bl/6 mice (repeated doses of 5 mg/kg, once daily days 17-23), the “effect of repeated doses in CIPN model” value is “sustained beneficial effect”. Besides, in the series with Male C57Bl/6 mice (within 30 min of a single dose, 5 or 20 mg/kg IP, day 17), the “pain thresholds (von Frey) in cisplatin-treated animals” value is “significantly increased”. Besides, the serious adverse effects entry in the series with experienced drug users (self-administered, dose 10 to 20 mg) is on record as “no serious adverse effects”.

In the case of `CCN(CC)C(=O)[C@@H]1C=C2c3cccc4[nH]cc(c34)C[C@H]2N(C)C1` [LSD, lysergic acid-N,N-diethylamide], in series [3] (Hibicke et al. (2020)), the “reduction in immobility (FST)” value is 38%.

In the case of `CNCC[C@H](Oc1cccc2ccccc12)c1cccs1` [duloxetine, reference compound], the “animals with complete (maximal) reversal of reserpine-induced pain sensitivity” value in series [2] came to 44%.

With `CNCCC(Oc1ccc(C(F)(F)F)cc1)c1ccccc1` (stereo not drawn) [fluoxetine, reference compound], in the series with Male Sprague Dawley rats (Example 8), the “swimming behavior (FST)” value is reported as “significantly increased swimming behavior”.

For `CNC1(c2ccccc2Cl)CCCCC1=O` (stereo not drawn) [ketamine], the “reduction in immobility (FST)” value in series [3] (Hibicke et al. (2020)) is 30%; in series [3] (Tizabi et al. (2012)), 60%; in series [3] (Yang et al. (2013)), 25-55%.

As to `CN(C)CCc1c[nH]c2cccc(OP(=O)(O)O)c12` [psilocybin], the “reduction in immobility (FST)” value in series [3] (Hibicke et al. (2020)) is given as 67%.
